Earlier results in patent publication US20170007630A1, “COMPOSITION AND METHOD OF DELIVERY OF L-ARABINOSE AND SELECT COMPOUNDS” (priority 2011, published 2017).

Assays:
[1] = one study conducted in China
[2] = target: T1, sucrase (Homo sapiens, UniProt P14410); conditions: compared with sucrose
[3] = target: T1, sucrase

T1 sequence (P14410 whole entry): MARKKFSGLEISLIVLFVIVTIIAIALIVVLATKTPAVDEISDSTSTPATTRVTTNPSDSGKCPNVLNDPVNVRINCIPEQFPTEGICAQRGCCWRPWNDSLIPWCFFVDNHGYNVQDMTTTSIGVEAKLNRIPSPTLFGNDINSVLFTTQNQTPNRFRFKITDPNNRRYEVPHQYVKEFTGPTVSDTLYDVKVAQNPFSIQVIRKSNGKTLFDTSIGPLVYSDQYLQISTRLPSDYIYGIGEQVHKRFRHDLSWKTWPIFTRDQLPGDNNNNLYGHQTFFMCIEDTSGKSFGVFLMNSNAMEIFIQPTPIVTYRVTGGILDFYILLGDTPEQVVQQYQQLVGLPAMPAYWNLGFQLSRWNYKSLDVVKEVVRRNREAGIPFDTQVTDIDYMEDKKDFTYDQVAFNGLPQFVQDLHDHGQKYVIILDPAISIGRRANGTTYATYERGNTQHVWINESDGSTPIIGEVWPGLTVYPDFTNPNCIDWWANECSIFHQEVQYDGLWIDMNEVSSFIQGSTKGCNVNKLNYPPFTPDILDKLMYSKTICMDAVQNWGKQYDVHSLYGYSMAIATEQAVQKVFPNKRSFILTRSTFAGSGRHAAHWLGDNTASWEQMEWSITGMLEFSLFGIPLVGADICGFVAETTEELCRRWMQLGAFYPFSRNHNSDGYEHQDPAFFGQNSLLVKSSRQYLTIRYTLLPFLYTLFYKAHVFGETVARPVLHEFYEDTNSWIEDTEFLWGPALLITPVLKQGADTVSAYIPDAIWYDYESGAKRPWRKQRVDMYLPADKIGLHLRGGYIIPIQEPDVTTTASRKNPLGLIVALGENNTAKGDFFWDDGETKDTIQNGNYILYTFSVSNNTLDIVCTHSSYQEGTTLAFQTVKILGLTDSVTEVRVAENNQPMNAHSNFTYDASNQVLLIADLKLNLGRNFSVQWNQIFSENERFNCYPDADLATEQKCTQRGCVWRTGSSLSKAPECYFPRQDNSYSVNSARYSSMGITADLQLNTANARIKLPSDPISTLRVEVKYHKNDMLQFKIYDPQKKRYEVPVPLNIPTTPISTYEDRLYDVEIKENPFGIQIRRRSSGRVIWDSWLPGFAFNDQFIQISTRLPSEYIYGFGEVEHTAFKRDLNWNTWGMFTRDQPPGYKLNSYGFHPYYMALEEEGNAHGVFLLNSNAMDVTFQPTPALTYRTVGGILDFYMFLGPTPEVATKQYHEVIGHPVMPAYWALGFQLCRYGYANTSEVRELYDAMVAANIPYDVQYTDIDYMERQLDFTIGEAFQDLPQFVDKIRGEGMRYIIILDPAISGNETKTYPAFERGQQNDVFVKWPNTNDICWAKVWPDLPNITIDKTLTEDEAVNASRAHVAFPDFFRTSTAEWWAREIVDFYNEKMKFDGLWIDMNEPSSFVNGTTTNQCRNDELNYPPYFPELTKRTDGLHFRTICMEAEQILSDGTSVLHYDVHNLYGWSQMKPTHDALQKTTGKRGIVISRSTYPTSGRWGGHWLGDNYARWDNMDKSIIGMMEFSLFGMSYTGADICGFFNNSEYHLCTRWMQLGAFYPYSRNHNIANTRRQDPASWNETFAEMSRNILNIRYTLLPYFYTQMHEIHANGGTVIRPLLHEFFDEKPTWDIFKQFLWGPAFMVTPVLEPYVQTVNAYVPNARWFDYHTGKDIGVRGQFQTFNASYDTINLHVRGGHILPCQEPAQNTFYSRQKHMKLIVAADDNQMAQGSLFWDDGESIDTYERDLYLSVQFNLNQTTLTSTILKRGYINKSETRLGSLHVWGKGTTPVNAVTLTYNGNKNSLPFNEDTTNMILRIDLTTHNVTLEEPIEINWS

participants that experienced discomforts such as loose bowel or diarrhea [1]: about 40%
affinity to sucrase relative to sucrose [2]: approximately 5 times
parts of sucrose inhibited from breakdown per one part of L-arabinose [3]: up to 20 parts
SMILES: O=C[C@H](O)[C@@H](O)[C@@H](O)CO [L-arabinose]
